Reference: paper PMC10970924 (Life, 2024)
Read-outs that look alike come from different tables or passages of the source.

Tests used:
porcine neuronal tubulin = experiment: Tubulin polymerization assay (Cytoskeleton kit); type: biochemical; conditions: effector 10 µM; for Maximum Initial Rate of Polymerization V Max: tubulin 3 mg/mL, 37 °C
Protocol: To assess the effect of the test compounds on tubulin polymerization, a test kit from Cytoskeleton was used. The plate was pre-warmed to 37 °C for 20 min before starting the assay. Then, 10 µL of the compound of interest, at a 10-fold concentration in an assay buffer, was pipetted into the plate. For comparison, paclitaxel, a polymerization enhancer, and vinblastine, a tubulin polymerization inhibitor, were used. Both effectors were used at a concentration of 10 µM. The assay buffer served as a control. The plate was then incubated at 37 °C for 2 min, after which 100 µL of the diluted tubulin solution (containing 3 mg/mL of tubulin in 80 mM PIPES pH 6.9, 2 mM MgCl2, 0.5 mM EGTA, 1 mM GTP, and 7% glycerol) was added. The plate was then immediately placed in the plate reader. Absorbance was measured at 340 nm every minute for 61 readings on a Varioskan LUX (Thermo Scientific, Waltham, MA, USA) plate reader.

PC-3 cells = conditions: for Olive Moment / Tail Area / Tail DNA % / Tail Intensity / Tail Length / Tail Moment: 3 days; for DNA breaks in the Comet assay (in words): PC-3, 72 h
Protocol: PC-3 and MCF-7 cells were seeded into 6-well plates at a concentration of 15,000 cells/mL. […] Cells were trypsinized and washed, then placed in 0.7% low melting point agarose and mounted on glass slides (200 000 cells/sample). Slides were treated with lysis solution (2.5 M NaCl, 0.1 M disodium EDTA, 1% Triton X-100, 10 mM Tris base, 10% DMSO, pH 10) for 1 h at 4 °C. Next, the samples were placed in an alkaline solution (12 g of NaOH brought to 1 L with water, disodium EDTA 0.2 M, pH >13) and incubated for 30 min at room temperature. Afterward, the slides were washed with electrophoresis 1X TBE buffer (10X TBE: 9.3 g disodium salt EDTA, 108 g Tris base, and 55 g boric acid per 1 L of water) twice and placed in the electrophoresis chamber. Electrophoresis was carried out under neutral conditions in 1X TBE buffer for 30 min at 31 V (at the rate of 1 V/cm). Afterward, the slides were washed in PBS (Ca free, Mg free) 2 times for 5 min, fixed in 96% ethanol for 5 min, and dried. Before analysis, 50 μL of SYBR Green solution (1μL stock + 10 mL TE buffer) was applied to the slides. Using an Observer Z1 fluorescent optical microscope (Carl Zeiss, Jena, Germany), photographs of cells were taken and analyzed in the ImageJ program (Plugin OpenComet).
“Tail moment” (TM) and “Olive moment” (OTM) were calculated using the following formula:(1) TM=(Fluor in tail/Fluor total )×tail lenght (2) OTM=(Tail mean−Head mean)×(Tail DNA %)/100.

HCT-116 [1] = experiment: Mitochondrial membrane potential, rhodamine 123 flow cytometry; type: cell-based, human; conditions: tumor cells (HCT-116 in Figure 4a), 72 h, IC50 or higher
Protocol: Cells were seeded in a 12-well plate at a density of 1 × 10^5 cells/well and incubated for 24 h at 37 °C in a humid atmosphere with 5% CO2 prior to treatment. Cells were bathed in complete DMEM media containing the respective compounds, using a solvent (dH2O/DMSO) as a negative control. After 72 h, the nutrient medium over cells containing the floating cells was collected into tubes, and then the adherent cells were trypsinized and added to the fraction of floating cells. Cell suspensions were then centrifuged, and the pellet was suspended in phosphate-buffered saline (PBS) to a final density of 5 × 10^5 cells/mL. Cell suspension in a volume of 250 μL and 500 nM rhodamine 123 were added to a rounded-well plate, followed by incubation for 30 min at 25° C. Measurements were conducted using flow cytometry on the Millipore Guava EasyCyte HT Flow Cytometer System in a green fluorescent channel.

MCF-7 cells = experiment: Cell cycle analysis, Hoechst 33342 flow cytometry; type: cell-based, human; conditions: MCF-7, 72 h
Protocol: MCF-7 cells were seeded at a density of 15,000 cells/mL in a 6-well plate in 3 mL of complete medium. After 24 h, the medium was replaced with one containing the studied compounds and incubated for 72 h. After incubation, cells were stained with Hoechst 33342 (Roche, Basel, Switzerland) at a concentration of 6 μg/mL for 30 min in the CO2 incubator. The nutrient medium over cells containing the floating cells was collected into tubes, and then the remaining adherent cells were trypsinized and added to the tubes with the floating cells. After this, cells were centrifuged and washed with a DPBS buffer. The fluorescence intensity of cells was measured using the flow cytofluorimeter BD FACSCalibur™ (BD Biosciences, Franklin Lakes, NJ, USA). To identify single cells, direct scatter (FS) and side scatter (SS) measurements were used, and cell doublets were excluded from the analysis using pulse processing based on the area-to-pulse width ratio.

HCT-116 [2] = experiment: Colony formation assay; type: cell-based; conditions: Homo sapiens, HCT-116, 72 h, read-out: Inhibitory concentration IC50, HCT-116
Protocol: (§1) Cells were cultured in a 24-well plate with 1 mL of DMEM nutrient medium for 24 h. […] The experiment was conducted in triplicate and in two or three independent repetitions. Only solvent was added to the control wells instead of the test compounds. Incubation with the drugs continued for three days, after which the grown colonies were washed with cold PBS solution and fixed in a fixing buffer (10% acetic acid, 10% methanol in distilled water) for 15 min. The colonies were stained with a 0.4% solution of crystal violet in 20% ethanol for 30 min and then washed 3 times with dH2O and analyzed under a microscope. The colonies were then dissolved in 10% acetic acid for 40 min on a shaker, and the absorbance of the lysate was read at 590 nm. Results were expressed as a percentage relative to the control, and a dose–response curve was plotted to determine the IC50 value.

MCF-7 = experiment: Colony formation assay; type: cell-based; conditions: Homo sapiens, MCF7, 72 h, read-out: Inhibitory concentration IC50, MCF-7
Protocol: as §1

PC-3 = experiment: Colony formation assay; type: cell-based; conditions: Homo sapiens, PC-3, 72 h, read-out: Inhibitory concentration IC50, PC-3
Protocol: as §1

[3] = colony formation assay, incubation three days

COc1cccc2c1C(=O)c1c(O)c3c(c(O)c1C2=O)C[C@@](O)(C(=O)CO)C[C@@H]3O[C@H]1C[C@H](N)[C@H](O)[C@H](C)O1 [DOX, Doxorubicin, reference compound]
Impact on tubulin polymerization (in words) (porcine neuronal tubulin): no statistically significant impact
Maximum Initial Rate of Polymerization V Max (porcine neuronal tubulin): 5.5 mOD/Min
Olive Moment (PC-3 cells; PC-3, 0.5 µM (IC25)): 8.13
Tail Area (PC-3 cells; PC-3, 0.5 µM (IC25)): 2215
Tail DNA % (PC-3 cells; PC-3, 0.5 µM (IC25)): 22.7%
Tail Intensity (PC-3 cells; PC-3, 0.5 µM (IC25)): 66
Tail Length (PC-3 cells; PC-3, 0.5 µM (IC25)): 51
Olive Moment (PC-3 cells; PC-3, 1.1 µM (IC50)): 11.64
Tail Area (PC-3 cells; PC-3, 1.1 µM (IC50)): 1902
Tail DNA % (PC-3 cells; PC-3, 1.1 µM (IC50)): 35.2%
Tail Intensity (PC-3 cells; PC-3, 1.1 µM (IC50)): 74
Tail Length (PC-3 cells; PC-3, 1.1 µM (IC50)): 51
DNA breaks in the Comet assay (in words) (PC-3 cells): induces DNA breaks
Effect on mitochondrial potential ΔΨ (in words) (HCT-116 [1]): significant number of cells with reduced mitochondrial potential
Effect on the cell cycle (in words) (MCF-7 cells): cell-cycle arrest in the G2M phase
IC50 (HCT-116 [2]; [3]): 620 ± 140 nM
IC50 (MCF-7; [3]): 60 ± 3 nM
IC50 (PC-3; [3]): 1170 ± 480 nM

COc1cccc2c1C(=O)c1c(O)c3c(c(O)c1C2=O)CC(O)(C(=O)CO)CC3OC1CC(NC(=O)c2cnc(C)c3c2COC(C)(C)O3)C(O)C(C)O1 (stereo not drawn) [DOX-1, N-(3-hydroxy-2-methyl-6-((3,5,12-trihydroxy-3-(2-hydroxyacetyl)-10-methoxy-6,11-dioxo-1,2,3,4,6,11-hexahydrotetracen-1-yl)oxy)tetrahydro-2H-pyran-4-yl)-2,2,8-trimethyl-4H-[1,3]dioxino[4,5-c]pyridine-5-carboxamide]
Impact on tubulin polymerization (in words) (porcine neuronal tubulin): no statistically significant impact
Maximum Initial Rate of Polymerization V Max (porcine neuronal tubulin): 5.5 mOD/Min
Olive Moment (PC-3 cells; PC-3, 3 µM (IC25)): 2.48
Tail Area (PC-3 cells; PC-3, 3 µM (IC25)): 1094
Tail DNA % (PC-3 cells; PC-3, 3 µM (IC25)): 6.7%
Tail Intensity (PC-3 cells; PC-3, 3 µM (IC25)): 34
Tail Length (PC-3 cells; PC-3, 3 µM (IC25)): 10
Tail Moment (PC-3 cells; PC-3, 3 µM (IC25)): 1.07
Olive Moment (PC-3 cells; PC-3, 6.1 µM (IC50)): 2.24
Tail Area (PC-3 cells; PC-3, 6.1 µM (IC50)): 1196
Tail DNA % (PC-3 cells; PC-3, 6.1 µM (IC50)): 6.7%
Tail Intensity (PC-3 cells; PC-3, 6.1 µM (IC50)): 30
Tail Length (PC-3 cells; PC-3, 6.1 µM (IC50)): 17
Tail Moment (PC-3 cells; PC-3, 6.1 µM (IC50)): 1.36
Olive Moment (PC-3 cells; PC-3, 11.3 µM (IC70)): 3.79
Tail Area (PC-3 cells; PC-3, 11.3 µM (IC70)): 1403
Tail DNA % (PC-3 cells; PC-3, 11.3 µM (IC70)): 11.4%
Tail Intensity (PC-3 cells; PC-3, 11.3 µM (IC70)): 37
Tail Length (PC-3 cells; PC-3, 11.3 µM (IC70)): 12
Tail Moment (PC-3 cells; PC-3, 11.3 µM (IC70)): 1.87
DNA breaks in the Comet assay (in words) (PC-3 cells): do not cause DNA breaks
melting point: 165 to 167 °C (dec.)
Effect on mitochondrial potential ΔΨ (in words) (HCT-116 [1]): significant number of cells with reduced mitochondrial potential
IC50 (HCT-116 [2]): 4420 ± 3020 nM
IC50 (MCF-7): 870 ± 120 nM
IC50 (PC-3): 3200 ± 310 nM

COc1cccc2c1C(=O)c1c(O)c3c(c(O)c1C2=O)CC(O)(C(=O)CO)CC3OC1CC(NC(=O)/C=C/c2cnc(C)c3c2COC(C)(C)O3)C(O)C(C)O1 (stereo not drawn) [DOX-2, (E)-N-(3-hydroxy-2-methyl-6-((3,5,12-trihydroxy-3-(2-hydroxyacetyl)-10-methoxy-6,11-dioxo-1,2,3,4,6,11-hexahydrotetracen-1-yl)oxy)tetrahydro-2H-pyran-4-yl)-3-(2,2,8-trimethyl-4H-[1,3]dioxino[4,5-c]pyridin-5-yl)acrylamide]
Impact on tubulin polymerization (in words) (porcine neuronal tubulin): no statistically significant impact
Maximum Initial Rate of Polymerization V Max (porcine neuronal tubulin): 6.8 mOD/Min
melting point: 175 to 176 °C (dec.)
Effect on the cell cycle (in words) (MCF-7 cells): cell-cycle arrest in the G2M phase
IC50 (HCT-116 [2]): 910 ± 390 nM
IC50 (MCF-7): 1630 ± 40 nM
IC50 (PC-3): 1660 ± 820 nM
